Like-named read-outs stand apart in the source and are kept apart here. Blank lines part the entries; values can stand above or below the compound they belong to.
Key:
[1] = In vivo plasma pharmacokinetics after a single i.v. or p.o. dose in male ICR mice; design: species or system mouse; conditions: for half-life / Vd: male, ICR; for half-life / Vd / MRT / clearance: iv; for Cmax / Tmax: po
From the text: The animal experiments conducted in this study were approved by the Institutional Animal Care and Use Committee of the Korea Research Institute of Bioscience and Biotechnology (Chung-buk, Korea; KRIBB-AEC-15005, 9 January 2015) and performed in compliance with the National Institutes of Health Guidelines for the care and use of laboratory animals and Korean national laws for ethical conduct in the care and use of animals. Specific pathogen-free (SPF) male ICR mice (8 weeks old) were purchased from Koatech Co. (Pyeongtaek, Kyonggi, Republic of Korea) and maintained in an SPF environment at a temperature of 22 ± 2 °C with a 12-h light/dark cycle and a relative humidity of 50 ± 10%. Food and water were given ad libitum. Animals were allowed to acclimatize to the testing facility for a week before being used in the study. Animal group for oral administration was fasted overnight before the study and fed again 4 h after dosing. Mice were given a single dose of test substance intravenously (i.v.) via tail vein injection or orally (p.o.) by a disposable syringe with an oral zonde. While LW6 was administered i.v. (5 mg/kg) or p.o. (5 mg/kg), APA was administered only i.v. (5 mg/kg). The solutions were prepared in dimethylacetamide/Cremophor EL/20% v/v 2-hydroxypropyl β-cyclodextrin in de-ionized water (1/1/3 v/v; i.v. or p.o. for LW6) or ethanol/20% v/v 2-hydroxypropyl β-cyclodextrin in de-ionized water (1/9 v/v; i.v. for APA) and administered at a dose volume of 5 mL/kg for both i.v. and p.o. Blood samples were collected via saphenous vein without the use of anesthesia as described in the earlier methodology study at the time points including 0, 0.25, 0.5, 0.75, 1, 2, 4, 6, 8, and 24 h after oral administration or 0, 0.083, 0.167, 0.25, 0.5, 1, 2, 4, 6, 8, and 24 h after intravenous administration. These samples were collected into Microvette® capillary tubes at predetermined time points. The blood samples were centrifuged under refrigeration at 12,000× g for 3 min and then kept frozen at −20 °C until analysis.
Plasma samples were prepared for analysis by the protein precipitation method. An aliquot of 15 µL from each plasma sample was transferred to a PCR tube (Axygen, Union City, CA, USA). Four volumes of acetonitrile containing the analytical internal standard (IS) 4-methylumbelliferone were added and the resulting mixture was vortexed for 10 min on a Multi-Tube vortexer (VWR International, West Chester, PA, USA), and sonicated for 30 min at room temperature. The tube was centrifuged at 12,000× g for 10 min and the supernatant was analyzed for the test substance. Sample analysis was performed by 3200 Q TRAP LC-MS/MS system (Applied Biosystems, Concord, ON, Canada) in a negative MRM mode. The analytical methods are described below.
Pharmacokinetic parameters were calculated by noncompartmental analysis of the plasma concentration-time profiles using Kinetica^TM 4.4.1 (Thermo Fisher Scientific, Inc., Woburn, MA, USA). The areas under the plasma concentration–time curves (AUC) were calculated by the linear-trapezoidal method. Total body clearance (CL) was calculated as follows: CL = Dose/AUC0–inf. Terminal elimination half-life (t1/2) was calculated by the following equation: t1/2 = 0.693/λz, where λz is the terminal disposition rate constant. Volume of distribution at steady state (Vss) was calculated as follows: Vss = CL × AUMC0–inf/AUC0–inf, where AUMC0–inf is the area under the first moment of the plasma concentration-time curve extrapolated to infinity. Oral bioavailability (F) was calculated using the following equation:(1) F=(AUCpo/Dosepo)/(AUCiv/Doseiv)×100
Fraction of dose converted to a systemically available metabolite was calculated by the following equation, where D is the dose of the parent, AUC(m) is the area under the curve of metabolite, and CL(m) is the systemic clearance of metabolite:(2) % of dose = AUC(m) ×CL(m)/D×parent mol. wt./metabolite mol. wt. ×100 […]

[2] = Metabolic stability in pooled mouse liver microsomes; type: in vitro ADME
Description: LW6 (1 µM) was incubated with pooled mouse liver microsomes (0.5 mg/mL) in the absence or presence of NADPH (1 mM) to determine its conversion to APA. LW6 was degraded slowly in the absence or presence of NADPH, with 63% or 65% remaining after 60 min microsomal incubations, respectively (Figure 3A). […] APA, following its formation, gradually disappeared from the microsomal incubation media only in the presence of NAPDH (Figure 3A). To determine whether APA was metabolized by cytochrome P450 (CYP450), APA (1 µM) also was incubated with pooled male mouse liver microsomes (0.5 mg/mL) in the absence or presence of NADPH (1 mM).
All incubations were conducted in triplicate at 37 °C in eight-well tube strips placed in an 8 × 12 rack (VWR, Emeryville, CA). Incubation mixtures consisted of mouse liver microsomes (0.5 mg protein/mL), NADPH (1 mM), and LW6 (1 µM) or APA (1 µM) in 0.1 M potassium phosphate buffer (pH 7.4). The final incubation volume was 160 µL and the final acetonitrile content was 1%. Samples were preincubated for 5 min at 37 °C before adding LW6 or APA to initiate the reaction. The reaction was terminated at 0, 5, 15, 30, and 60 min by the addition of 320 µL of ice-cold acetonitrile containing the internal standard. Incubation mixtures were then centrifuged at 910× g for 10 min and the supernatant was analyzed by the LC-ESI/MS/MS method described below for quantitation of LW6 and APA.

[3] = Stability in mouse serum; type: in vitro ADME
Description: All incubations were conducted in triplicate at 37 °C in eight-well tube strips placed in an 8 × 12 rack (VWR, Emeryville, CA, USA) with 50 µL of mouse serum in each tube. LW6 (1 mM) dissolved in acetonitrile was added to a final concentration of […] (1% acetonitrile) to initiate the study. The reaction was terminated at 0, 1, 2, 4, and 6 h by adding 150 µL of ice-cold acetonitrile containing the internal standard. The eight-well cluster tube plate was centrifuged at 910× g for 10 min and the supernatant was analyzed by the LC-ESI/MS/MS method described below for quantitation of LW6 and APA.

[4] = test system: Caco-2 cells
[5] = Stability in phosphate buffer at physiological pH; type: physicochemical; conditions: data not shown
[6] = in vitro; conditions: human
[7] = test system: HIF-1α; conditions: cited from earlier work
[8] = test system: HCT116 xenograft; test: HCT116 xenograft model study; type: in vivo; conditions: data not shown
[9] = mouse, plasma, 5 mg/kg, plasma, analyte = label, after single i.v. dose of LW6 5 mg/kg, male ICR mice, read-out: t1/2 (terminal) (converted)
[10] = mouse, plasma, analyte = label, after single i.v. dose of LW6 5 mg/kg, male ICR mice
[11] = mouse, plasma, analyte = label, after single p.o. dose of LW6 5 mg/kg, male ICR mice
[12] = mouse, plasma, analyte = label, after single p.o. dose of LW6 5 mg/kg, male ICR mice, n = 5
[13] = plasma, analyte = label, after single i.v. dose of LW6 5 mg/kg, male ICR mice
[14] = plasma, analyte = label, after single p.o. dose of LW6 5 mg/kg, male ICR mice
[15] = Caco-2, pH 7.4, Typical apparent permeability coefficient (Papp) values
[16] = single i.v. dose of APA 5 mg/kg, male ICR mice, n = 5

Time beyond which plasma level was below the quantitation limit ([1]; after i.v. LW6 5 mg/kg): 4 h
Time beyond which plasma level was below the quantitation limit ([1]; after p.o. LW6 5 mg/kg): 1 h
half-life [1, 9]: 36 ± 6 min
Vd ([1]; mouse, plasma, 5 mg/kg, single i.v. dose of LW6 5 mg/kg, male ICR mice, read-out: Vss (volume of distribution at steady state)): 0.5 ± 0.1 L/kg
MRT [1, 10]: 0.3 h
clearance ([1]; mouse, plasma, single i.v. dose of LW6 5 mg/kg, male ICR mice, read-out: CL (systemic clearance) (converted)): 28.3 mL/min/kg
bioavailability ([1]; mouse, plasma, oral, LW6 5 mg/kg p.o. vs 5 mg/kg i.v., calculated using AUC0–t, male ICR mice, read-out: F (oral bioavailability)): 1.7 ± 1.8%
Cmax [1, 11]: 65.5 ± 47.3 ng/mL
Tmax [1, 12]: 18 ± 6 min
Decrease of plasma exposure of LW6 when administered orally ([1]; oral vs intravenous, 5 mg/kg): about 60 fold
AUC0–inf [1, 13]: 2957.1 ± 215.4 ng/h/mL
AUC0–t [1, 13]: 2949.3 ± 218.4 ng/h/mL
AUC0–t [1, 14]: 49.5 ± 52.5 ng/h/mL
Vz ([1]; single i.v. dose of LW6 5 mg/kg, male ICR mice): 1.6 ± 0.3 Lkg
LW6 remaining after 60 min microsomal incubation ([2]; 1 µM, 0.5 mg/mL microsomes, absence of NADPH): 63%
LW6 remaining after 60 min microsomal incubation ([2]; 1 µM, 0.5 mg/mL microsomes, presence of NADPH (1 mM)): 65%
t1/2 of conversion to APA in liver microsomes ([2]; 1 µM, 0.5 mg/mL mouse liver microsomes): > 60 min
half-life at 1 µM ([2]; mouse, pooled mouse liver microsomes, pH 7.4, as stated in abstract, read-out: t1/2 of degradation in mouse liver microsomes): > 60 min
half-life at 5 µM ([3]; ICR, mouse serum, 5 µM, up to 6 h, read-out: t1/2 of degradation in serum): > 360 min
Conversion to APA in mouse serum (in words) ([3]; LW6 5 µM): converted slowly to APA
Permeability across Caco-2 cell monolayers (in words) [4]: moderately permeable
Stability in phosphate buffer [5]: stable
Papp at 120 min, 5 µM ([6]; Caco-2, pH 7.4, Papp): 2.1 ± 0.4 ×10⁻⁶ cm/s
Compound: COC(=O)c1ccc(O)c(NC(=O)COc2ccc(C34CC5CC(CC(C5)C3)C4)cc2)c1 [LW6]
Accumulation of HIF-1α [7]: inhibited
HIF-1α protein expression ([7]; without affecting HIF-1β expression, via regulation of VHL): decreased

Papp at 120 min, 5 µM ([6]; Caco-2, pH 7.4, Papp): 0.8 ×10⁻⁶ cm/s
Papp at 120 min, 5 µM [6, 15]: < 2 ×10⁻⁶ cm/s
Compound: CNC(=C[N+](=O)[O-])NCCSCc1ccc(CN(C)C)o1 [Ranitidine, ranitidine]

Papp at 120 min, 5 µM ([6]; Caco-2, pH 7.4, Papp): 35.3 ± 0.6 ×10⁻⁶ cm/s
Papp at 120 min, 5 µM [6, 15]: > 25 ×10⁻⁶ cm/s
Compound: COCCc1ccc(OCC(O)CNC(C)C)cc1 (stereo not shown) [Metoprolol, metoprolol]

half-life [1, 9]: 162 ± 12 min
Vd ([1]; mouse, plasma, 5 mg/kg, single i.v. dose of APA 5 mg/kg, male ICR mice, n = 5, read-out: Vss): 0.4 ± 0.1 L/kg
Vd ([1]; mouse, plasma, 5 mg/kg, single i.v. dose of APA 5 mg/kg, male ICR mice, n = 5, read-out: Vz): 0.5 ± 0.2 L/kg
half-life ([1]; mouse, plasma, 5 mg/kg, single i.v. dose of APA 5 mg/kg, male ICR mice, n = 5, read-out: t1/2 (converted)): 144 ± 24 min
MRT [1, 10]: 3.6 ± 0.2 h
clearance ([1]; mouse, plasma, single i.v. dose of APA 5 mg/kg, male ICR mice, n = 5, read-out: CL (converted)): 1.67 mL/min/kg
Cmax [1, 11]: 4240 ± 1260 ng/mL
Tmax [1, 12]: 42 ± 6 min
AUC0–inf [1, 13]: 17,759.9 ± 3194.1 ng/hr/mL
AUC0–t [1, 13]: 17,731.4 ± 3190.5 ng/hr/mL
AUC0–inf [1, 14]: 14,744.8 ± 5517.4 ng/hr/mL
AUC0–t [1, 14]: 14,615.3 ± 5507.8 ng/hr/mL
AUC0–inf [1, 16]: 39,624.7 ± 9502.30 ng/hr/mL
AUC0–t [1, 16]: 37,703.8 ± 10,162.9 ng/hr/mL
CL [1, 16]: 0.1 ± 0.0 L/h/kg
APA depletion in mouse liver microsomes (in words) ([2]; APA 1 µM, 0.5 mg/mL microsomes, presence of NADPH (1 mM)): progressively decreased
Compound: O=C(O)COc1ccc(C23CC4CC(CC(C4)C2)C3)cc1 [APA, (4-adamantan-1-yl-phenoxy)acetic acid]
Tumor growth inhibition relative to the control group [8]: up to 43.3%
